Measured values: US20240390328A1, “PHARMACEUTICAL COMPOSITION CONTAINING AS ACTIVE INGREDIENT COMPOUND CONJUGATED TO G4 STRUCTURES OF CORONAVIRUSES FOR PREVENTION OR TREATMENT OF CORONAVIRUS INFECTIOUS DISEASES” (priority 2020, published 2024)

Tests used:
Type in all cases: binding
[1] = tested on: SARS-COV-2 RNA G4, position 644 (NsP1); assay: CD thermal melting analysis, G4 No. 2; conditions: G4 No. 2, position 644, NsP1; 15 μM RNA G4, 30 μM compound
Protocol: (§1) For melting, the samples were heated at 25 to 95° C. at 2° C./min with a data pitch of 0.5° C. CD melting analyses were performed with and without G4-binding compounds. The ratio of RNA: G4-binding compound was set to a molar ratio of 1:2. 15 μM RNA G4 was treated with 30 μM G4-binding compound and incubated at room temperature in a buffer comprising 10 mM Tris-HCl (pH 7.5) and 100 mM KCl for 30 minutes. Ellipticity was measured at 265 nm. Thereafter, data were normalized and plotted in OriginPro 2017 to calculate Tm values.
(§2) In addition, 15 μM RNA G4 was treated with 30 μM compound and incubated, and a CD thermal melting curve of RNA G4 (15 μM) was obtained in the presence or absence of the G4-binding compound. Furthermore, the effect of G4-binding compounds on the stability of SARS-COV-2 G4 was confirmed by measuring the difference in melting temperature (ΔTm). The results are illustrated in FIGS. 6A and 6B.

[2] = tested on: SARS-COV-2 RNA G4, position 4261 (NsP3); assay: CD thermal melting analysis, G4 No. 8; conditions: G4 No. 8, position 4261, NsP3; 15 μM RNA G4, 30 μM compound
Protocol: as §1, §2

[3] = tested on: SARS-COV-2 RNA G4, position 29123 (Nucleocapsid protein); assay: CD thermal melting analysis, G4 No. 24; conditions: G4 No. 24, position 29123, Nucleocapsid protein; 15 μM RNA G4, 30 μM compound
Protocol: as §1, §2

[4] = tested on: SARS-COV-2 RNA G4, position 29234 (Nucleocapsid protein); assay: CD thermal melting analysis, G4 No. 25; conditions: G4 No. 25, position 29234, Nucleocapsid protein; 15 μM RNA G4, 30 μM compound
Protocol: as §1, §2

[5] = tested on: SARS-COV-2 RNA G4, position 28903 (Nucleocapsid protein); assay: CD thermal melting analysis, G4 No. 23; conditions: G4 No. 23, position 28903, Nucleocapsid protein; 15 μM RNA G4, 30 μM compound
Protocol: as §1, §2

[6] = tested on: SARS-COV-2 RNA G4, position 1463 (NsP2); assay: CD thermal melting analysis, G4 No. 3; conditions: G4 No. 3, position 1463, NsP2; 15 μM RNA G4, 30 μM compound
Protocol: as §1, §2

[7] = tested on: SARS-COV-2 RNA G4, position 3467 (NsP3); assay: CD thermal melting analysis, G4 No. 6; conditions: G4 No. 6, position 3467, NsP3; 15 μM RNA G4, 30 μM compound
Protocol: as §1, §2

[8] = tested on: SARS-COV-2 RNA G4, position 353 (NsP1); assay: CD thermal melting analysis, G4 No. 1; conditions: G4 No. 1, position 353, NsP1; 15 μM RNA G4, 30 μM compound
Protocol: as §1, §2

[9] = tested on: SARS-COV-2 RNA G4, position 26746 (Membrane protein); assay: CD thermal melting analysis, G4 No. 21; conditions: G4 No. 21, position 26746, Membrane protein; 15 μM RNA G4, 30 μM compound
Protocol: as §1, §2

[10] = tested on: SARS-COV-2 RNA G4, position 15448 (NsP12); assay: CD thermal melting analysis, G4 No. 14; conditions: G4 No. 14, position 15448, NsP12; 15 μM RNA G4, 30 μM compound
Protocol: as §1, §2

[11] = tested on: 25 G4s predicted for SARS-COV-2; assay: CD thermal melting analysis, comparison of ΔTm over all G4s; conditions: for effect on stability of SARS-COV-2 G4 (ΔTm), in words: 15 μM RNA G4, 30 μM compound, FIGS. 6A and 6B; for number of G4s Destabilized: of the 25 SARS-COV-2 G4s
[12] = tested on: SARS-COV-2 RNA G4, position 18296 (NsP12); assay: CD thermal melting analysis, G4 No. 15; conditions: G4 No. 15, position 18296, NsP12; 15 μM RNA G4, 30 μM compound
Protocol: as §1, §2

[13] = tested on: SARS-COV-2 RNA G4, position 22316 (Surface glycoprotein); assay: CD thermal melting analysis, G4 No. 16; conditions: G4 No. 16, position 22316, Surface glycoprotein; 15 μM RNA G4, 30 μM compound
Protocol: as §1, §2

[14] = tested on: SARS-COV-2 RNA G4, position 8687 (NsP4); assay: CD thermal melting analysis, G4 No. 9; conditions: G4 No. 9, position 8687, NsP4; 15 μM RNA G4, 30 μM compound
Protocol: as §1, §2

[15] = tested on: SARS-COV-2 RNA G4, position 24268 (Surface glycoprotein); assay: CD thermal melting analysis, G4 No. 18; conditions: G4 No. 18, position 24268, Surface glycoprotein; 15 μM RNA G4, 30 μM compound
Protocol: as §1, §2

[16] = tested on: SARS-COV-2 RNA G4, position 25951 (ORF3a protein); assay: CD thermal melting analysis, G4 No. 20; conditions: G4 No. 20, position 25951, ORF3a protein; 15 μM RNA G4, 30 μM compound
Protocol: as §1, §2

[17] = tested on: SARS-COV-2 RNA G4, position 13385 (NsP10); assay: CD thermal melting analysis, G4 No. 11; conditions: G4 No. 11, position 13385, NsP10; 15 μM RNA G4, 30 μM compound
Protocol: as §1, §2

[18] = tested on: SARS-COV-2 RNA G4, position 10261 (NsP5); assay: CD thermal melting analysis, G4 No. 10; conditions: G4 No. 10, position 10261, NsP5; 15 μM RNA G4, 30 μM compound
Protocol: as §1, §2

[19] = tested on: SARS-COV-2 RNA G4, position 24215 (Surface glycoprotein); assay: CD thermal melting analysis, G4 No. 17; conditions: G4 No. 17, position 24215, Surface glycoprotein; 15 μM RNA G4, 30 μM compound
Protocol: as §1, §2

| Compound | Tm in ° C. with compound [1] | ΔTm [1] | Tm in ° C. with compound [2] | ΔTm [2] | Tm in ° C. with compound [3] | ΔTm [3] | Tm in ° C. with compound [4] | ΔTm [4] | Tm in ° C. with compound [5] | ΔTm [5] | Tm in ° C. with compound [6] | ΔTm [6] | Tm in ° C. with compound [7] | ΔTm [7] | Tm in ° C. with compound [8] | ΔTm [8] | Tm in ° C. with compound [9] | ΔTm [9] | Tm in ° C. with compound [10] | ΔTm [10] | also measured |
| --- | --- | --- | --- | --- | --- | --- | --- | --- | --- | --- | --- | --- | --- | --- | --- | --- | --- | --- | --- | --- | --- |
| CN1CCC[C@H]1CCNC(=O)c1cn2c3c(c(N4CCC(c5cnccn5)C4)c(F)cc3c1=O)Oc1cc3ccccc3cc1-2 (stereo partly drawn) [CX-3543, 15-fluoro-N-[2-[(2S)-1-methylpyrrolidin-2-yl]ethyl]-18-oxo-14-(3-pyrazin-2-ylpyrrolidin-1-yl)-12-oxa-1-azapentacyclo [11.7.1.0^2,11.0^4,9.0^17,21]henicosa-2,4,6,8, 10, 13 (21), 14,16,19-nonaene-19-carboxamide] | 53.32 °C | 5.59 °C | 63.89 °C | 13.58 °C | 62.59 °C | 8.19 °C | 58.52 °C | −3.65 °C | 63.45 °C | 6.34 °C | 66.55 °C | 11.03 °C | 63.54 °C | −2.01 °C | 72.64 °C | 1.05 °C | 59.29 °C | −3.37 °C | 58.58 °C | 5.96 °C | effect on stability of SARS-COV-2 G4 (ΔTm), in words [11]: did not show any noticeable change; number of G4s Destabilized [11]: 6; Tm in ° C. with compound [12]: 63.64 °C; ΔTm [12]: 4.81 °C; Tm in ° C. with compound [13]: 49.56 °C; ΔTm [13]: 1.28 °C; Tm in ° C. with compound [14]: 49.83 °C; ΔTm [14]: 2.97 °C; Tm in ° C. with compound [15]: 40.42 °C; ΔTm [15]: −0.05 °C; Tm in ° C. with compound [16]: 53.87 °C; ΔTm [16]: 5.13 °C; Tm in ° C. with compound [17]: 52.87 °C; ΔTm [17]: 7.27 °C; Tm in ° C. with compound [18]: 50.24 °C; ΔTm [18]: 2.35 °C; Tm in ° C. with compound [19]: 57.16 °C; ΔTm [19]: 1.74 °C |
| NCCOc1cc(C(=O)Nc2cc(OCCN)c3ccccc3n2)nc(C(=O)Nc2cc(OCCN)c3ccccc3n2)c1 [PDS, 4-(2-aminoethoxy)-N2,N6-bis(4-(2-aminoethoxy)quinolin-2-yl)pyridine-2,6-dicarboxamide] | 70.59 °C | 22.86 °C | 79.18 °C | 28.87 °C | 73.83 °C | 19.43 °C | 80.2 °C | 18.03 °C | 60.46 °C | 3.35 °C | 60.04 °C | 4.52 °C | 88.65 °C | 23.1 °C | 87.66 °C | 16.07 °C | 68.77 °C | 6.11 °C | 56.5 °C | 3.88 °C | effect on stability of SARS-COV-2 G4 (ΔTm), in words [11]: significantly stabilized most G4s; proportion of the G4s with ΔTm>20° C. ([11]; among the 25 G4s predicted for SARS-COV-2): 36%; number of G4s Destabilized [11]: 2; Tm in ° C. with compound [12]: 82.4 °C; ΔTm [12]: 23.57 °C; Tm in ° C. with compound [13]: 55.62 °C; ΔTm [13]: 7.34 °C; Tm in ° C. with compound [14]: 84.44 °C; ΔTm [14]: 37.58 °C; Tm in ° C. with compound [15]: 46.11 °C; ΔTm [15]: 5.64 °C; Tm in ° C. with compound [16]: 92.26 °C; ΔTm [16]: 43.52 °C; Tm in ° C. with compound [17]: 63.07 °C; ΔTm [17]: 17.47 °C; Tm in ° C. with compound [18]: 60.66 °C; ΔTm [18]: 12.77 °C; Tm in ° C. with compound [19]: 62.93 °C; ΔTm [19]: 7.51 °C |
